The structures appear in SMILES notation. Where “and” joins values, the source holds several entries; their conditions need not be identical. Identical values can stand only once. Like-named read-outs stand apart in the source and are kept apart here. Where a SMILES comes first, the peptide text is derived from it. [ ]: non-standard residue; d: D form. The star is where a group is joined. Dolaproine = CO[C@@H]([C@@H]1CCCN1)[C@@H](C)C(=O)O; Dil = CC[C@H](C)[C@H](NC)[C@@H](CC(=O)O)OC; X1 = C[C@@H](N*)[C@@H](O)c1ccccc1; NMeV = CN[C@H](C(=O)O)C(C)C

One series has as its system CHO-ALPPL2 cells. Nature of the series: In vitro cell viability (Cell Titre Glo, 96 h), CHO-ALPPL2. It is filed as cell-based. The following applies: cell-killing. As for the experimental part: (§1) CHO-ALPP isoform stable transfectants were generated using CHO-K1 cells (CCL-61) provided by the American Type Culture Collection (ATCC). Grown in ATCC-formulated F-12K medium+10% FCS.
(§2) In vitro cell viability assays for cancer cells treated with anti ALPP/ALPPL2 drug conjugates Cells were seeded in the appropriate complete growth media, as described above, into white, clear bottom 96 well plates (Costar) and incubated at 37° C., 5% C02 for 24 hours. On the following day, dilution series were set up for each test agent at ×10 working stocks. The dose response X10 stock was e.g.: 10000, 5000, 1000, 500, 100, 50, 10, 5, 1, 0.5 nM etc. […] Plates were allowed to sit for a further 10 minutes at room temperature prior to measuring luminescence read-out using a Clariostar plate-reader (BMG). Data was analysed by calculating the average for untreated (vehicle only) control wells and determining the % of control for each treated well. % of control data was then plotted against Log [Treatment] concentration and the IC50 value derived using non-linear regression fitting in GraphPad Prism software. […]
(§3) Cell Titre Glo assays were performed as described in Example 5. Cells were incubated with VHH-hFc-drug conjugates and h12F3 drug conjugates at 37° C., 5% CO2 for 96 hours and the % of cell viability determined as a function of dose response. […]

The subject of a further series is CHO-ALPP cells. Description: In vitro cell viability (Cell Titre Glo, 96 h), CHO-ALPP. Conditions: cell-killing. It is filed as cell-based. The protocol: as §1, §2, §3
Another series relates to CHO-ALPL cells. Description: In vitro cell viability (Cell Titre Glo, 96 h), CHO-ALPL. It is filed as cell-based. Conditions: cell-killing. The protocol: as §1
as §2, with “etc. 10 μL of the X10 stock solutions were added to the cell plates (90 μl per well) using a multichannel pipette. […] 10 μl of vehicle control (PBS) was added to the control wells (columns 11 and 12). Plates were incubated at 37° C., 5% CO2 for 96 hours.” for “etc.”

Another series has as its system NCI-H1651 cells. Description: In vitro cell viability (Cell Titre Glo, 96 h), NCI-H1651. It is filed as cell-based. Conditions: Table 24. As for the experimental part:
NCI-H1651 cells, CRL-5884 provided by the American Type Culture Collection (ATCC). Grown in ATCC DMEM:F12 medium+10% FCS plus supplements required to make ACL-4 media as recommended by ATCC.
as §2, §3

A further series deals with MKN1 cells. Description: In vitro cell viability (Cell Titre Glo, 96 h), MKN1. Conditions: Table 24. It is filed as cell-based. As for the experimental part:
MKN1 cells (RCB1003, Riken BRC). Ref: Cancer Sci 2006; 97:387-394, were provided by the RIKEN BRC through the National BioResource Project of the MEXT, Japan Grown in RPMI1640+10% FCS.
as §2
(§4) Cell Titre Glo assays were performed as described in Example 5. Cells were incubated with biparatopic VHH-hFc-drug conjugates and h12F3 drug conjugate at 37° C., 5% CO2 for 96 hours and the % of cell viability determined as a function of dose response. […]

The test system of another series is CHO-ALPI cells. Nature of the series: In vitro cell viability (Cell Titre Glo, 96 h), CHO-ALPI. It is filed as cell-based. Conditions: cell-killing. As for the experimental part: as §1
as §2, with “etc. 10 μL of the X10 stock solutions were added to the cell plates (90 μl per well) using a multichannel pipette. […] 10 μl of vehicle control (PBS) was added to the control wells (columns 11 and 12). Plates were incubated at 37° C., 5% CO2 for 96 hours.” for “etc.”

A further series deals with HeLa cells. Nature of the series: In vitro cell viability (Cell Titre Glo, 96 h), HeLa. It is filed as cell-based. Conditions: ALPP/ALPPL2 negative cell-line, Table 24. The protocol:
HeLa cells, CCL-2 provided by the American Type Culture Collection (ATCC). Grown in EMEM+10% FCS
as §2, with “etc. 10 μL of the X10 stock solutions were added to the cell plates (90 μl per well) using a multichannel pipette. […] 10 μl of vehicle control (PBS) was added to the control wells (columns 11 and 12). Plates were incubated at 37° C., 5% CO2 for 96 hours. Promega Cell Titre Glo reagent was used as per the manufacturer's instructions to assess cell viability.” for “etc.”

The test system of the next series is NCI-N87 cells. Description: In vitro cell viability (Cell Titre Glo, 96 h), NCI-N87. It is filed as cell-based, human. Conditions: Table 24. The protocol: NCI-N87 cells, CRL-5822 provided by the American Type Culture Collection (ATCC). Grown in RPM11640+10% FCS.
as §2, with “etc. 10 μL of the X10 stock solutions were added to the cell plates (90 μl per well) using a multichannel pipette.” for “etc.”
as §4

As usually defined, the IC50 is the point on the concentration scale where inhibition reaches its midpoint. For the compound `CC[C@H](C)[C@@H]([C@@H](CC(=O)N1CCC[C@H]1[C@H](OC)[C@@H](C)C(=O)N[C@H](C)[C@@H](O)c1ccccc1)OC)N(C)C(=O)[C@@H](NC(=O)[C@@H](NC)C(C)C)C(C)C` [MMAE, monomethylauristatin E] (H-[NMeV]V[Dil][Dolaproine]-X1), the IC50 in the series with CHO-ALPPL2 cells (Table 18, read-out: IC50 @ 96 h, CHO-ALPPL2) is 24.4 nM and 16.6 nM; in the series with CHO-ALPPL2 cells (Table 23, read-out: IC50 at 96 h, CHO-ALPPL2) it was 24.4 nM and 15.6 nM; with CHO-ALPP cells (Table 18, read-out: IC50 @ 96 h, CHO-ALPP) it was 19.1 nM and 19.5 nM; with CHO-ALPP cells (Table 23, read-out: IC50 at 96 h, CHO-ALPP) it was 19.1 nM and 19.5 nM; with CHO-ALPL cells (Table 18, read-out: IC50 @ 96 h, CHO-ALPL), 29.4 nM and 25.8 nM; with CHO-ALPL cells (Table 23, read-out: IC50 at 96 h, CHO-ALPL), 29.4 nM and 25.8 nM. Moreover, the 50% inhibitory concentration (IC50) is 0.8 nM in the series with NCI-H1651 cells (cell-killing); 1.4 nM in the series on MKN1 cells (cell-killing); 11.4 nM and 15.9 nM with CHO-ALPI cells (Table 18, read-out: IC50 @ 96 h, CHO-ALPI); 11.4 nM and 15.9 nM in the series on CHO-ALPI cells (Table 23, read-out: IC50 at 96 h, CHO-ALPI); 1.8 nM with HeLa cells (cell-killing); 0.3 nM in the series on NCI-N87 cells (cell-killing). The “% viability remaining, NCI-H1651” value with NCI-H1651 cells was 28.1%. Further, in the series on MKN1 cells, the “% viability remaining, MKN1” value worked out at 23.1%. In the series on HeLa cells, the “% viability remaining, HeLa” value amounted to 5.1%. Moreover, the “% viability remaining, NCI-N87” value in the series on NCI-N87 cells is reported as 27.9%.
